The target in this assay is EthR-VP16 binding to PethR (Mycobacterium bovis, UniProt Q7TVI1). Format: cell-based, E. coli BL21(DE3).
Chain of EthR-VP16 binding to PethR (Q7TVI1 whole entry, looked up): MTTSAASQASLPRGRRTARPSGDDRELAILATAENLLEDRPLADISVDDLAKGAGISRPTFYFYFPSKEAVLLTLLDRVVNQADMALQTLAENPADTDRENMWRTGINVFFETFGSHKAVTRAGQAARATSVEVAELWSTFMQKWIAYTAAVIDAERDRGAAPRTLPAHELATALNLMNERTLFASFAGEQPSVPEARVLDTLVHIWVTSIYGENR

For the molecule `CCCC(=O)OCCc1ccccc1` [2-Phenylethyl butyrate], the “green fluorescence (EthR-controlled GFP expression)” value was “adjustable green fluorescence”.
